Results from the supplement of paper PMC5908809.

Columns and labels:
NK-92 (IL-2 2.5 ng/mL) [1] = assay: drug sensitivity score (DSS) (DSS units); higher = more sensitive; extreme values may be limits of the assay; details: 72 h
[2] = test system: normal primary NK cells, pool 1 (3 donors) (IL-2 2.5 ng/mL); assay: as above; details: 72 h
[3] = test system: normal primary NK cells, pool 3 (3 donors) (IL-2 2.5 ng/mL); assay: as above; details: 72 h
IMC-1 (IL-2 20 ng/mL) [4] = assay: as above; details: 72 h
[5] = test system: normal primary NK cells, pool 2 (3 donors) (IL-2 2.5 ng/mL); assay: as above; details: 72 h
NKL (IL-2 2.5 ng/mL) [6] = assay: as above; details: 72 h
KAI3 (IL-2 2.5 ng/mL) [7] = assay: as above; details: 72 h
[8] = test system: normal primary NK cells, pool 1 (3 donors), resting (IL-2 0 ng/mL); assay: as above; details: 72 h
SNK-6 (IL-2 2.5 ng/mL) [9] = assay: as above; details: 72 h
DERL-7 (IL-2 2.5 ng/mL) [10] = assay: as above; details: 72 h
YT (IL-2 2.5 ng/mL) [11] = assay: as above; details: 72 h
NK-YS (IL-2 2.5 ng/mL) [12] = assay: as above; details: 72 h
KHYG-1 (IL-2 2.5 ng/mL) [13] = assay: as above; details: 72 h
NK-92 (IL-2 2.5 ng/mL) [14] = assay: percent inhibition of viability; higher = more inhibition; details: 72 h
[15] = test system: normal primary NK cells, pool 1 (3 donors) (IL-2 2.5 ng/mL); assay: as above; details: 72 h
[16] = test system: normal primary NK cells, pool 3 (3 donors) (IL-2 2.5 ng/mL); assay: as above; details: 72 h
IMC-1 (IL-2 20 ng/mL) [17] = assay: as above; details: 72 h
[18] = test system: normal primary NK cells, pool 2 (3 donors) (IL-2 2.5 ng/mL); assay: as above; details: 72 h
NKL (IL-2 2.5 ng/mL) [19] = assay: as above; details: 72 h
KAI3 (IL-2 2.5 ng/mL) [20] = assay: as above; details: 72 h
[21] = test system: normal primary NK cells, pool 1 (3 donors), resting (IL-2 0 ng/mL); assay: as above; details: 72 h
SNK-6 (IL-2 2.5 ng/mL) [22] = assay: as above; details: 72 h
DERL-7 (IL-2 2.5 ng/mL) [23] = assay: as above; details: 72 h
YT (IL-2 2.5 ng/mL) [24] = assay: as above; details: 72 h
NK-YS (IL-2 2.5 ng/mL) [25] = assay: as above; details: 72 h
KHYG-1 (IL-2 2.5 ng/mL) [26] = assay: as above; details: 72 h
[27] = test system: normal NK cells expanded with K562-aAPC; assay: as above; details: 72 h, IL-2 2.5 ng/mL
Experimental: (§1)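 Drug sensitivity and resistance testing on K562-aAPC-expanded normal NK cells: 5 concentrations (10-fold steps over a 10,000-fold range), 72 h at 37 °C, viability by CellTiter-Glo normalised to DMSO and benzethonium chloride controls; DSS from the fitted curve.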

[28] = test system: normal NK cells expanded with K562-aAPC; assay: drug sensitivity score (DSS) (DSS units); higher = more sensitive; extreme values may be limits of the assay; details: 72 h; IL-2 2.5 ng/mL
Experimental: as §1

Cc1c(NC(=O)OC[C@@H]2COCCN2)cn2ncnc(Nc3ccc4c(cnn4Cc4cccc(F)c4)c3)c12 (max concentration tested 10000 nM)
Details | drug sensitivity score
DERL-7 (IL-2 2.5 ng/mL) [10] | 3.21
IMC-1 (IL-2 20 ng/mL) [4] | 2.97
KAI3 (IL-2 2.5 ng/mL) [7] | 3.56
KHYG-1 (IL-2 2.5 ng/mL) [13] | 5.75
NK-92 (IL-2 2.5 ng/mL) [1] | 7.04
NK-YS (IL-2 2.5 ng/mL) [12] | 2.25
NKL (IL-2 2.5 ng/mL) [6] | 3.06
SNK-6 (IL-2 2.5 ng/mL) [9] | 0.86
YT (IL-2 2.5 ng/mL) [11] | 2.8
[2] | 1.06
[3] | 2.07
[5] | 3.16
[8] | 2.48
[28] | 2.22

percent inhibition of viability [%]
Details | 1 nM | 10 nM | 100 nM | 1000 nM | 10000 nM
DERL-7 (IL-2 2.5 ng/mL) [23] | -2.53 | -0.41 | -0.2 | 2.93 | 52.5
IMC-1 (IL-2 20 ng/mL) [17] | -5.26 | -0.97 | 0.8 | 4.51 | 43.6
KAI3 (IL-2 2.5 ng/mL) [20] | 1.51 | 4.45 | 5.56 | -0.23 | 65.3
KHYG-1 (IL-2 2.5 ng/mL) [26] | 4.55 | 7.44 | 7.32 | 8.8 | 77.5
NK-92 (IL-2 2.5 ng/mL) [14] | -5.71 | -0.55 | 7.56 | 7.66 | 105
NK-YS (IL-2 2.5 ng/mL) [25] | 1.47 | 0.48 | 3.03 | 2.38 | 38.8
NKL (IL-2 2.5 ng/mL) [19] | -10.7 | 1.23 | -8.56 | 0.45 | 55.9
SNK-6 (IL-2 2.5 ng/mL) [22] | -6.28 | -7.55 | -9.76 | -27.8 | 33.1
YT (IL-2 2.5 ng/mL) [24] | 2.59 | 1.59 | 4.74 | 2.33 | 47.5
[15] | 1.48 | -6.08 | -9.4 | -15 | 34.3
[16] | -5.86 | 2.09 | 3.41 | -2.09 | 44
[18] | -13 | -2.17 | -2.11 | 0.64 | 57.2
[21] | 4.93 | -4.06 | 4.13 | -12.6 | 58.4
[27] | 6.16 | 1.61 | -2.01 | 5.74 | 30.1
